Source: BigSolDB 2.1

## Cc1cnc(NC(=O)C2=C(O)c3ccccc3S(=O)(=O)N2C)s1
In PEG-400, 298.15 K
  solubility (mole fraction): 0.00932
In PEG-400, 303.15 K
  solubility (mole fraction): 0.0096
In PEG-400, 308.15 K
  solubility (mole fraction): 0.0101
In PEG-400, 313.15 K
  solubility (mole fraction): 0.0104
In PEG-400, 318.15 K
  solubility (mole fraction): 0.0106
In water, 298.15 K
  solubility (mole fraction): 4.24e-07
In water, 303.15 K
  solubility (mole fraction): 6.28e-07
In water, 308.15 K
  solubility (mole fraction): 9.48e-07
In water, 313.15 K
  solubility (mole fraction): 1.34e-06
In water, 318.15 K
  solubility (mole fraction): 1.93e-06
